Results published in PubChem BioAssay AID1963432 (Molecular Pharmacology Branch, DTP, NCI, 2024).

Tested on: SYO-1 complex spheroid growth, percent test/control
Assay: Anticancer human tumor SYO-1 cell line growth inhibition [Asc];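 further: compound exposure lasted 7 days after spheroids grew 3 days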;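 on viability, T/C: 100% = DMSO vehicle control viability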
Conditions: for IC50: curve of first compound; for viability, T/C: stronger effect = lower value
Summary of the method: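 Complex spheroids combining tumor cells with HUVEC endothelial cells and human MSCs, at 37 degrees C, 5% CO2; agents tested alone or combined, half-log dilutions from at or near clinical Cmax, or 10 microM if Cmax unknown.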

## C#Cc1c(F)ccc2cc(O)cc(-c3ncc4c(N5CC6CCC(C5)N6)nc(OCC56CCCN5CC(F)C6)nc4c3F)c12 (centres undefined) + CCN1C(C(=O)NC23CCC(C(=O)O)(CC2)CC3)C(c2cccc(Cl)c2F)C2(C(=O)Nc3cc(Cl)ccc32)C12CCCCC2
Second compound 0.00949 µM
  IC50: > 10000 nM
Second compound 0.03 µM
  IC50: > 10000 nM
Second compound 0.0949 µM
  IC50: > 10000 nM
Second compound 0.3 µM
  IC50: < 31.6 nM
Second compound 0.949 µM
  IC50: < 31.6 nM
Second compound 3 µM
  IC50: < 31.6 nM
Second compound 0.00949 µM, first compound 0.0316 µM
  viability, T/C: 113%
Second compound 0.00949 µM, first compound 0.1 µM
  viability, T/C: 95.3%
Second compound 0.00949 µM, first compound 0.316 µM
  viability, T/C: 101%
Second compound 0.00949 µM, first compound 1 µM
  viability, T/C: 98.1%
Second compound 0.00949 µM, first compound 3.16 µM
  viability, T/C: 113%
Second compound 0.00949 µM, first compound 10 µM
  viability, T/C: 112%
Second compound 0.03 µM, first compound 0.0316 µM
  viability, T/C: 99%
Second compound 0.03 µM, first compound 0.1 µM
  viability, T/C: 90.1%
Second compound 0.03 µM, first compound 0.316 µM
  viability, T/C: 97.2%
Second compound 0.03 µM, first compound 1 µM
  viability, T/C: 99.3%
Second compound 0.03 µM, first compound 3.16 µM
  viability, T/C: 105%
Second compound 0.03 µM, first compound 10 µM
  viability, T/C: 104%
Second compound 0.0949 µM, first compound 0.0316 µM
  viability, T/C: 84.8%
Second compound 0.0949 µM, first compound 0.1 µM
  viability, T/C: 81.2%
Second compound 0.0949 µM, first compound 0.316 µM
  viability, T/C: 88.3%
Second compound 0.0949 µM, first compound 1 µM
  viability, T/C: 85.8%
Second compound 0.0949 µM, first compound 3.16 µM
  viability, T/C: 86.8%
Second compound 0.0949 µM, first compound 10 µM
  viability, T/C: 79.7%
Second compound 0.3 µM, first compound 0.0316 µM
  viability, T/C: 26.7%
Second compound 0.3 µM, first compound 0.1 µM
  viability, T/C: 24.9%
Second compound 0.3 µM, first compound 0.316 µM
  viability, T/C: 21.6%
Second compound 0.3 µM, first compound 1 µM
  viability, T/C: 20.5%
Second compound 0.3 µM, first compound 3.16 µM
  viability, T/C: 21.6%
Second compound 0.3 µM, first compound 10 µM
  viability, T/C: 13.5%
Second compound 0.949 µM, first compound 0.0316 µM
  viability, T/C: 2.32%
Second compound 0.949 µM, first compound 0.1 µM
  viability, T/C: 3.19%
Second compound 0.949 µM, first compound 0.316 µM
  viability, T/C: 3.03%
Second compound 0.949 µM, first compound 1 µM
  viability, T/C: 3.66%
Second compound 0.949 µM, first compound 3.16 µM
  viability, T/C: 2.43%
Second compound 0.949 µM, first compound 10 µM
  viability, T/C: 0.85%
Second compound 3 µM, first compound 0.0316 µM
  viability, T/C: 1.29%
Second compound 3 µM, first compound 0.1 µM
  viability, T/C: 1.17%
Second compound 3 µM, first compound 0.316 µM
  viability, T/C: 1.63%
Second compound 3 µM, first compound 1 µM
  viability, T/C: 1.09%
Second compound 3 µM, first compound 3.16 µM
  viability, T/C: 0.91%
Second compound 3 µM, first compound 10 µM
  viability, T/C: 0.35%

## Cc1nc(N2CCC3(CC2)COC(C)C3N)c(CO)nc1Sc1ccnc(N)c1Cl (centres undefined) + CCN1C(C(=O)NC23CCC(C(=O)O)(CC2)CC3)C(c2cccc(Cl)c2F)C2(C(=O)Nc3cc(Cl)ccc32)C12CCCCC2
Second compound 0.00949 µM
  IC50: > 3000 nM
Second compound 0.03 µM
  IC50: > 3000 nM
Second compound 0.0949 µM
  IC50: > 3000 nM
Second compound 0.3 µM
  IC50: < 9.49 nM
Second compound 0.949 µM
  IC50: < 9.49 nM
Second compound 3 µM
  IC50: < 9.49 nM
Second compound 0.00949 µM, first compound 0.00949 µM
  viability, T/C: 111%
Second compound 0.00949 µM, first compound 0.03 µM
  viability, T/C: 103%
Second compound 0.00949 µM, first compound 0.0949 µM
  viability, T/C: 112%
Second compound 0.00949 µM, first compound 0.3 µM
  viability, T/C: 109%
Second compound 0.00949 µM, first compound 0.949 µM
  viability, T/C: 116%
Second compound 0.00949 µM, first compound 3 µM
  viability, T/C: 114%
Second compound 0.03 µM, first compound 0.00949 µM
  viability, T/C: 111%
Second compound 0.03 µM, first compound 0.03 µM
  viability, T/C: 103%
Second compound 0.03 µM, first compound 0.0949 µM
  viability, T/C: 108%
Second compound 0.03 µM, first compound 0.3 µM
  viability, T/C: 99.7%
Second compound 0.03 µM, first compound 0.949 µM
  viability, T/C: 117%
Second compound 0.03 µM, first compound 3 µM
  viability, T/C: 117%
Second compound 0.0949 µM, first compound 0.00949 µM
  viability, T/C: 82.8%
Second compound 0.0949 µM, first compound 0.03 µM
  viability, T/C: 81.1%
Second compound 0.0949 µM, first compound 0.0949 µM
  viability, T/C: 86.8%
Second compound 0.0949 µM, first compound 0.3 µM
  viability, T/C: 91.2%
Second compound 0.0949 µM, first compound 0.949 µM
  viability, T/C: 96.9%
Second compound 0.0949 µM, first compound 3 µM
  viability, T/C: 83.3%
Second compound 0.3 µM, first compound 0.00949 µM
  viability, T/C: 24.3%
Second compound 0.3 µM, first compound 0.03 µM
  viability, T/C: 19.9%
Second compound 0.3 µM, first compound 0.0949 µM
  viability, T/C: 23.2%
Second compound 0.3 µM, first compound 0.3 µM
  viability, T/C: 17.4%
Second compound 0.3 µM, first compound 0.949 µM
  viability, T/C: 17.4%
Second compound 0.3 µM, first compound 3 µM
  viability, T/C: 10.9%
Second compound 0.949 µM, first compound 0.00949 µM
  viability, T/C: 3.59%
Second compound 0.949 µM, first compound 0.03 µM
  viability, T/C: 2.68%
Second compound 0.949 µM, first compound 0.0949 µM
  viability, T/C: 3.26%
Second compound 0.949 µM, first compound 0.3 µM
  viability, T/C: 1.67%
Second compound 0.949 µM, first compound 0.949 µM
  viability, T/C: 1.74%
Second compound 0.949 µM, first compound 3 µM
  viability, T/C: 0.54%
Second compound 3 µM, first compound 0.00949 µM
  viability, T/C: 0.99%
Second compound 3 µM, first compound 0.03 µM
  viability, T/C: 1.08%
Second compound 3 µM, first compound 0.0949 µM
  viability, T/C: 0.94%
Second compound 3 µM, first compound 0.3 µM
  viability, T/C: 2.3%
Second compound 3 µM, first compound 0.949 µM
  viability, T/C: 0.69%
Second compound 3 µM, first compound 3 µM
  viability, T/C: 0.39%
